In publication PMC5859971 (Genes & Development, 2018):
Several values for one entry are separate records, joined by “and”; a condition that tells them apart may be missing. Identical values can stand only once. Like-named read-outs stand apart in the source and are kept apart here.

Tests used:
[1] = system: splicing of Ad2.1 pre-mRNA substrate; assay: In vitro splicing (IVS) assay, Ad2.1 substrate, HeLa S3 nuclear extracts, RT-qPCR; assay type: biochemical, human; settings: Ad2.1 (strong) substrate
From the text: (§1) A substrate competitive mechanism of action (MOA) would predict that weaker pre-mRNA substrates would be easier to inhibit than stronger substrates. To date, it has not been possible to evaluate substrate competition using traditional steady-state conditions because splicing reactions are thought to be single-turnover events in vitro, and therefore it is not possible to measure a KM for the pre-mRNA. […] Specifically, we engineered the strong in vitro splicing substrate Ad2.1 by enhancing the U2 snRNP base-pairing around the BPA found in the Ad2 substrate. We then engineered a weaker substrate, Ad2.2, by adding a decoy BPS lacking an extrahelical adenosine (Ad2.2) (Fig. 5A; Supplemental Vector NTI files; [Corrionero et al. 2011]). […] We then evaluated E7107 and several chemical probes to better understand their mechanism.
(§2) Figure 5. […] (A) Base-pairing logic for IVS substrates. (BPRS) Branch point recognition sequence in U2 snRNA; (BPS) the BPS in the pre-mRNA. The Ad2 gene BPS sequence (UACUUAU) was modified (UACUAAU) to strengthen the U2 base-pairing interactions flanking the BPA, leading to the Ad2.1 substrate (BPA in red). The Ad2.2 sequence has the same BPS as Ad2 but also contains a 5′ decoy BPS sequence (lacking an extrahelical adenine) that can base-pair with the BPRS. The decoy BPS and suboptimal BPS overlap, which gives U2 at least two possibilities for possible base pairing, as indicated. […] (B) RT-qPCR time-course data showing product formation over time. […] (C) Representative IC50 curves for compound 6 using the two different substrates (Ad2.1 and Ad2.2).
(§3) The Ad2-derived ([Pellizzoni et al. 1998]) sequence was cloned into the pGEM-3Z vector (Promega) using 5′ EcoRI and 3′ XbaI restriction sites. The Ad2 variant (Ad2.2) ([Seiler et al. 2018]) was cloned into pcDNA3.1(+) vector (Promega) using the same restriction sites. The plasmids were linearized using XbaI and used as DNA templates in the in vitro transcription reactions. The FtzΔi intron-less plasmid ([Luo and Reed 1999]) was linearized using EcoRI. All RNAs were in vitro transcribed and then purified using MegaScript T7 and MegaClear kits, respectively (Invitrogen). For splicing reactions used with the Ad2.2 substrate, […] reactions were prepared using 8 µg of nuclear extracts prepared from HeLa S3, a saturating excess of 2 ng of pre-mRNA substrate, 0.2 ng of FTZΔi, and varying concentrations of compounds or DMSO.

HCT116-PHF5A^R38C = assay: CellTiter-Glo viability assay, HCT116-PHF5A^R38C; assay type: cell-based, human; settings: for GI50: Homo sapiens, 72 h, read-out: HCT116-PHF5A^R38C GI50
Protocol: (§4) To further validate the pose of the compound, we analyzed the activity of several related chemical probes using the SPA with the purified protein complex ([Teng et al. 2017]). The SPA is formatted as a competition assay in which the purified protein complex is captured on a bead containing scintillant, incubated with test compounds over a dose response, and then competed off with a fixed concentration of ^3H-Plad compound. IC50 curves are then measured from the resulting light emitted from the bead (Table 1; Supplemental Fig. S4). In addition, we tested the probes in viability assays in two engineered cell lines: HCT116-PHF5A^WT and the sensitization line HCT116-PHF5A^R38C (Table 1; Supplemental Fig. S5). This facilitates profiling of chemical probe activity in the PHF5A background (wild type and mutant). The relative expression levels were further confirmed by Western blot analysis (Supplemental Fig. S5).
(§5) Parental HCT116 cells were obtained from American Type Culture Collection and cultured in RPMI 1640 medium supplemented with 10% fetal bovine serum. PHF5A R38C was generated using the Agilent QuikChange II kit and was cloned into pLenti6.3/V5 as described ([Teng et al. 2017]). The verified clone was used for lentivirus production using X293T cells. Parental HCT116 cells were infected with virus and selected with blasticidin S at 10 µg mL^−1 for 1 wk. Engineered cell lines were subsequently maintained in the absence of antibiotic. Transgene expression was confirmed by Western blot analysis (Supplemental Fig. S4). For Western blot analysis, α-PHF5A rabbit polyclonal antibody (Protein Tech, 15554-1-AP) was used at 1:1000 dilution in LI-COR buffer, and anti-rabbit secondary antibody (LI-COR) was used at 1:5000 dilution. The Western blot was imaged using an Odyssey V3.0 imager (LI-COR). For CellTiter-Glo analysis of the wild-type and PHF5A^R38C cell lines, 500 cells were seeded in each well of a 384-well plate 1 d before compound addition. Dose response was measured in 11-point serial dilutions with a top dose of 10 µM. The percentage of DMSO was controlled throughout, and a DMSO-only control was included. Seventy-two hours after dosing, CellTiter-Glo reagent was added, incubated, and assayed on an EnVision multilabel reader (PerkinElmer). Luminescence values from each treatment were normalized to the average value of the respective DMSO control. The dose response curve plots were generated in GraphPad Prism, and GI50 values were calculated from nonlinear regression analysis. GI50 values for the wild-type and R38C mutant cell lines were plotted in Spotfire.

[2] = system: splicing of Ad2.2 pre-mRNA substrate; assay: In vitro splicing (IVS) assay, Ad2.2 substrate, HeLa S3 nuclear extracts, RT-qPCR; assay type: biochemical, human; settings: for inhibition of strong and weak IVS substrates: Ad2.1 and Ad2.2 substrates compared; for IC50: Ad2.2 (weak) substrate
From the text: as §1, §2, §3

HCT116-PHF5A^WT = assay: CellTiter-Glo viability assay, HCT116-PHF5A^WT; assay type: cell-based, human; settings: for GI50: Homo sapiens, 72 h, read-out: HCT116-PHF5A^WT GI50
Protocol: as §4, §5

[3] = biological target: T1, wild-type mini-SF3b complex (4-protein SF3b complex) (Homo sapiens, UniProt O75533+Q7RTV0); assay: Scintillation proximity assay (SPA) competition with 3H-labeled pladienolide probe; assay type: binding; settings: for activity after truncating the diene tail: assays of Table 1
T1 construct: SF3B1 was limited to the HEAT repeat domain from residues 454–1304 and cloned in-frame with an N-terminal Flag tag; Truncated SF3B1 and full-length SF3B3, PHF5A, and SF3B5 were synthesized; made in house; host or cells: SF21 insect cells (baculovirus, pFastBac1)
Protocol: as §4
Batch immobilization of the anti-Flag antibody (Sigma) to the anti-mouse PVT SPA scintillation beads (PerkinElmer) was prepared as follows. For every 1.5 mg of beads, 10 µg of antibody was prepared in 150 µL of PBS. The antibody–bead mixture was incubated for 30 min at room temperature and centrifuged at 18,000g for 5 min. One-hundred-fifty microliters of PBS was used to resuspend every 1.5 mg of antibody–bead mixture. The aforementioned mini-SF3b complex was tested for ^3H-labeled pladienolide probe binding ([Kotake et al. 2007]). One-hundred microliters of binding reactions was prepared with […] of bead slurry and 0 or 50 nM protein in buffer (20 mM HEPES at pH 8, 200 mM KCl, 5% glycerol). The mixture was incubated for 30 min, and varying concentrations of ^3H-labeled pladienolide probe were added. The mixture was incubated for 30 min, and luminescence signals were read using a MicroBeta2 plate counter (PerkinElmer). Compound competition studies were performed with the wild-type mini-SF3b complex. One-hundred microliters of binding reactions was prepared with 50 µL of bead slurry, 25 nM protein in buffer, and compounds at varying concentrations. After 30 min of preincubation, 10 nM ^3H-labeled pladienolide probe was added. The reactions were incubated for 30 min, and luminescence signals were read.
The Scintillation proximity assay (SPA) competition assay with 10 nM 3H tracer for different Pladienolide analogs binding to the 4-protein SF3b complex. Error bars represent STD for 2 or more measurements. Red = E7107, Orange = PladD, Purple = PladF, Green = compound 2, red = compound 3, gray = compound 4, black = compound 5, blue = compound 6. […]

[4] = system: HCT116 cell lines overexpressing PHF5A WT and mutants; assay: Viability curves in HCT116 cell lines overexpressing PHF5A WT and mutants; assay type: cell-based, human
Protocol: Parental HCT116 cells were obtained from American Type Culture Collection and cultured in RPMI 1640 medium supplemented with 10% fetal bovine serum. […] Parental HCT116 cells were infected with virus and selected with blasticidin S at 10 µg mL^−1 for 1 wk. Engineered cell lines were subsequently maintained in the absence of antibiotic. Transgene expression was confirmed by Western blot analysis (Supplemental Fig. S4). For Western blot analysis, α-PHF5A rabbit polyclonal antibody (Protein Tech, 15554-1-AP) was used at 1:1000 dilution in LI-COR buffer, and anti-rabbit secondary antibody (LI-COR) was used at 1:5000 dilution. The Western blot was imaged using an Odyssey V3.0 imager (LI-COR). For CellTiter-Glo analysis of the wild-type and PHF5A^R38C cell lines, 500 cells were seeded in each well of a 384-well plate 1 d before compound addition. Dose response was measured in 11-point serial dilutions with a top dose of 10 µM. The percentage of DMSO was controlled throughout, and a DMSO-only control was included. Seventy-two hours after dosing, CellTiter-Glo reagent was added, incubated, and assayed on an EnVision multilabel reader (PerkinElmer). Luminescence values from each treatment were normalized to the average value of the respective DMSO control. The dose response curve plots were generated in GraphPad Prism, and GI50 values were calculated from nonlinear regression analysis. […]

[5] = competition with 10 nM 3H-labeled pladienolide probe, 25 nM protein, read-out: SPA IC50

T1 sequence (Q7RTV0 whole entry, the tested form may be a part): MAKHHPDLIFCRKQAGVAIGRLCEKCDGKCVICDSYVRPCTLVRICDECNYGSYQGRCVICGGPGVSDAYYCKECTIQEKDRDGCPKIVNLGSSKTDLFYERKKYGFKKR
T1 sequence (Q15393 whole entry, further chain, the tested form may be a part): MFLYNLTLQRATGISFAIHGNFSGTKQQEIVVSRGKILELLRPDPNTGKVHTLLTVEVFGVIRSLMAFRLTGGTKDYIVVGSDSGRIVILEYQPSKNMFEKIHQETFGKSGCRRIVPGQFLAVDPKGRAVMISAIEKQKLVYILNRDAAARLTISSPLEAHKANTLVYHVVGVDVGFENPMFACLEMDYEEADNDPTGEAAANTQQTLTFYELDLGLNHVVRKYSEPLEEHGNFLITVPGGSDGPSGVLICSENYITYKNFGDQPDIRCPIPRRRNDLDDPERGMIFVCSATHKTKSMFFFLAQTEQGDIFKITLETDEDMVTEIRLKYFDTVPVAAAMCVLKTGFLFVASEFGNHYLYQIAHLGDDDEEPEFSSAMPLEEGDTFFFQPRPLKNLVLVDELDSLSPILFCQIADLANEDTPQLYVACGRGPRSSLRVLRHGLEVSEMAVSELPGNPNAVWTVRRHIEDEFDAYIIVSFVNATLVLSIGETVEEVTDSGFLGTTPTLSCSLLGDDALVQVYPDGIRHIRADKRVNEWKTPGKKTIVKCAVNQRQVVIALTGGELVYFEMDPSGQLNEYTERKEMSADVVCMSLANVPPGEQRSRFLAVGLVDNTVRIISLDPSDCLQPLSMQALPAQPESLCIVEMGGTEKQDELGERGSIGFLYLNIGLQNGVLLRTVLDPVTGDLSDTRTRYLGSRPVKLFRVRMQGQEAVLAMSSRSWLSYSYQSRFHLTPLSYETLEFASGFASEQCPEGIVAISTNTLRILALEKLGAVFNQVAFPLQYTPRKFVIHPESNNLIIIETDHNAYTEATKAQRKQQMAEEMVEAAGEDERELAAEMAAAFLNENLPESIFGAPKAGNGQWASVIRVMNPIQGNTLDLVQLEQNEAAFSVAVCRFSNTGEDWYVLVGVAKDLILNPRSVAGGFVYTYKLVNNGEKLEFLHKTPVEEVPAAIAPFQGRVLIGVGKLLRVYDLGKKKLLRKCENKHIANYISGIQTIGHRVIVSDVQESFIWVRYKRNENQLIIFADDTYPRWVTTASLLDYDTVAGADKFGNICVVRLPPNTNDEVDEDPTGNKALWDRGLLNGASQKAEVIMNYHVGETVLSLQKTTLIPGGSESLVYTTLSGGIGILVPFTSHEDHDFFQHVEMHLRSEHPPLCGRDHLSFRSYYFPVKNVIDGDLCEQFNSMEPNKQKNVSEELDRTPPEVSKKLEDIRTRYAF
T1 sequence (O75533 454-1304): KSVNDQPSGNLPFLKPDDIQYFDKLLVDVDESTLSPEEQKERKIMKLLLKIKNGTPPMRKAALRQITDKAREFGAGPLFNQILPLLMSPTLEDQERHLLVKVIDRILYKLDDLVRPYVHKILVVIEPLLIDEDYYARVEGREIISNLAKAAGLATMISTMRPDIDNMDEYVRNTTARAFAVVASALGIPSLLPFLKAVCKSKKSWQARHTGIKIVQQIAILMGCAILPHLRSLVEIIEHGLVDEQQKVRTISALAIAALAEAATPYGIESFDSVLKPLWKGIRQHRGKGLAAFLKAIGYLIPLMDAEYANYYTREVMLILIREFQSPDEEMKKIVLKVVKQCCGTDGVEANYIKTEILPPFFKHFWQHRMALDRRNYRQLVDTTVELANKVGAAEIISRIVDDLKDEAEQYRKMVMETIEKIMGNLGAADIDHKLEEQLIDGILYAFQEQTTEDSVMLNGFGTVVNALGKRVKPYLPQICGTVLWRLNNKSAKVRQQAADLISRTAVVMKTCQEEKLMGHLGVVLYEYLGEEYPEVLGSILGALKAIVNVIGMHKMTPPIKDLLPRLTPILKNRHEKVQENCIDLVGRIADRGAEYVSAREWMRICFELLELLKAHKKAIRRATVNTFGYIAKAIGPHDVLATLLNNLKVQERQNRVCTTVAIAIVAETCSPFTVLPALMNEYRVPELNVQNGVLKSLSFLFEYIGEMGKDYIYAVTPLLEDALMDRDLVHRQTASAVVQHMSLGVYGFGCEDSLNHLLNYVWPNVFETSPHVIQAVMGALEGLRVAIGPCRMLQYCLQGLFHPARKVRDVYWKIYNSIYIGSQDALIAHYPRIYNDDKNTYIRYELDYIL
T1 sequence (Q9BWJ5 whole entry, further chain, the tested form may be a part): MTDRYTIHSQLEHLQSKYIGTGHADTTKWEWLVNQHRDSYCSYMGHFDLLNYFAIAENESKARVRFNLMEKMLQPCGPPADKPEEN

Row | Molecule | IC50 [1] | GI50 (HCT116-PHF5A^R38C; CellTiter-Glo) | IC50 [2] | GI50 (HCT116-PHF5A^WT; CellTiter-Glo) | IC50 [3, 5] | PHF5A^R38C sensitization phenotype (words) (HCT116-PHF5A^R38C; R38C vs wild type) | further results
1 | CCC(O)C(C)C1OC1CC(C)(O)C=CC=C(C)C1OC(=O)CC(O)CCC(C)(O)C(OC(=O)N2CC[N+](C)(C3CCCCCC3)CC2)C=CC1C (centres unmarked) [Compound 1] | 177 nM and 184 nM | > 400 nM | 184 nM and 177 nM | > 400 nM | – | – | inhibition of strong and weak IVS substrates [2]: inhibit both the strong and weak substrates equally well
2 | CCC(O)C(C)C1OC1CC(C)(O)C=CC=C(C)C1OC(=O)CC(O)CCC(C)(O)C(OC(=O)N2CC[N+](Cc3ccccc3)(C3CCCCCC3)CC2)C=CC1C (centres unmarked) [Compound 2] | – | – | – | – | 236 nM | – | GI50 (HCT116-PHF5A^R38C): 259 nM; GI50 (HCT116-PHF5A^WT): > 400 nM
3 | CCC(O)C(C)C1OC1CC(C)(O)C=CC=C(C)C1OC(=O)CC(OC(=O)C2CC2)CCC(C)(O)C(OC(=O)N2CCN(C3CCCCCC3)CC2)C=CC1C (centres unmarked) [Compound 3] | > 25000 nM | 243 nM | 966 nM | > 400 nM | > 4000 nM | – | activity in the SPA binding assay ([3]; relative to E7107): total loss of activity
4 | C/C(=C\C(=O)O)[C@H]1OC(=O)C[C@H](O)CC[C@@](C)(O)[C@@H](OC(=O)N2CCN(C3CCCCCC3)CC2)/C=C/[C@@H]1C [Compound 4] | > 25000 nM | > 400 nM | > 25000 nM | > 400 nM | > 4000 nM | – | activity after truncating the diene tail [3]: completely eliminates activity
5 | C/C(=C\CO)[C@H]1OC(=O)C[C@H](O)CC[C@@](C)(O)[C@@H](OC(=O)N2CCN(C3CCCCCC3)CC2)/C=C/[C@@H]1C [Compound 5] | > 25000 nM | > 400 nM | 16000 nM | > 400 nM | > 4000 nM | – | activity after truncating the diene tail [3]: completely eliminates activity
6 | C/C(=C\C=C\[C@@H](C)c1ccccn1)[C@H]1OC(=O)C[C@H](O)CC[C@@](C)(O)[C@@H](OC(=O)N2CCN(C3CCCCCC3)CC2)/C=C/[C@@H]1C [Compound 6] | > 25000 nM | 11 nM | 23 nM | 34 nM | 376 nM | – | loss of potency relative to E7107 in the SPA ([3]; relative to E7107): sixfold; inhibition of strong and weak IVS substrates [2]: inhibit only the weak substrate; loss of potency relative to E7107 in viability assays (HCT116-PHF5A^WT): ~10 fold
7 | CCC(O)C(C)C1OC1CC(C)(O)C=CC=C(C)C1OC(=O)CC(O)CCC(C)(O)C(OC(C)=O)C=CC1C (centres unmarked) [Plad D] | – | – | – | – | – | – | PHF5A^R38C sensitization phenotype (words) (HCT116-PHF5A^R38C): did not observe this trend; GI50 (HCT116-PHF5A^R38C): 18 nM; IC50 [3]: 97 nM; activity in the SPA binding assay [3]: nearly equipotent to E7107; GI50 (HCT116-PHF5A^WT): 26 nM
8 | CCC(O)C(C)C1OC1CC(C)(O)C=CC=C(C)C1OC(=O)CC(O)CCC(C)(O)C(O)C=CC1C (centres unmarked) [Plad F] | > 25000 nM | > 400 nM | 171 nM | > 400 nM | 1500 nM | – | loss of potency relative to E7107 in the SPA ([3]; relative to E7107): 20 fold; inhibition of strong and weak IVS substrates [2]: inhibit only the weak substrate; loss of potency relative to E7107 in viability assays (HCT116-PHF5A^WT): > 200 fold
9 | CC(C)C[C@H](NC(=O)[C@H](Cc1ccccc1)NC(=O)c1cnccn1)B(O)O [bortezomib] | – | – | – | – | – | lie near the line of unity | killing of cell lines irrespective of PHF5A mutation status [4]: kills all of the cell lines at the same concentration
10 | CO[C@H]([C@@H](C)[C@H]1O[C@]1(C)C[C@H](C)/C=C/C=C(\C)[C@H]1O[C@@H](CC(=O)O)CC[C@@H]1C)[C@@H](C)O [herboxidiene] | – | – | – | – | – | not and did not exhibit this sensitization phenotype and lie near the line of unity | –
11 | CO[C@]1(C)C[C@@]2(CO2)[C@H](O)[C@@H](/C=C/C(C)=C/C[C@@H]2O[C@H](C)[C@H](NC(=O)/C=C\[C@H](C)OC(C)=O)C[C@@H]2C)O1 [spliceostatin] | – | – | – | – | – | did not exhibit this sensitization phenotype | PHF5A^R38C sensitization phenotype (words) (HCT116-PHF5A^R38C; R38C vs wild type, listed as Spliceostatin): lie near the line of unity
12 | pladienolide B [PladB] | – | – | – | – | – | did not observe this trend | –
